The text below walks through data of US5120851A, “Preparation process for making water-soluble lysine salts of (+)2-(4-fluorophenyl)-alpha-methyl-5-benzoxazole acetic acid” (Euroresearch S.r.l., priority 1988, dated 1992).

Usually ED50 stands for the midpoint of the dose-response relation. Lower therefore signals greater potency. By LD50 is commonly meant the dose expected to kill half of the subjects tested. A higher LD50 goes with a less toxic substance. As usually defined, the solubility is how much of the substance goes into solution per volume. Low values mean little dissolved substance, high ones much dissolved substance.

Structures can show the parent of a compound that is named as a salt.

The test system of series [1] is experimental edema induced by carrageen in a rat's paw. The experiment in a line: experimental edema induced by carrageen in a rat's paw. Type of series: in vivo, rat (Sprague Dawley--Charles River). To be noted: for TI (therapeutic index) LD50 /ED50: LD50 mice oral / ED50 rat paw edema; for ED50: Rattus norvegicus, rat paw carrageen edema, dosed 60 minutes before carrageen, paw volume at 2, 4 and 6 hours. The procedure:
(§1) The LD50 was determined by the Litchfield-Wilcoxon method on mice using progressive oral doses. […] The paw volume is checked 2, 4 and 6 hours after inoculating the carrageen.

Series [2] is described as follows: LD50 by the Litchfield-Wilcoxon method on mice, progressive oral doses. Particulars: mouse, in vivo. The procedure:
as §1

The nature of series [3]: water-solubility at 20° C. Type of series: physicochemical.
The conditions of series [4]: prior art statement; cited from earlier work.
The conditions of series [5]: cited from earlier work.

As to `C[C@H](C(=O)O)c1ccc2oc(-c3ccc(F)cc3)nc2c1` (racemic) [Example 1, salt of (+)2-(4-fluorophenyl)-alpha-methyl-5-benzoxazole acetic acid with DL-lysine], the “TI (therapeutic index) LD50 /ED50” value in series [1] (listed as Salt of flunoxaprofen with DL-lysine) was found to be 129.96. The molecule further returned a median effective dose (ED50) in series [1] (expressed as flunoxaprofen) of 5.54 mg/kg. The LD50 in series [2] (expressed as flunoxaprofen) came out at 720 mg/kg. Also, the solubility in series [3] (water) stood at 1000 mg/mL.

For the molecule `O=C(O)Cc1ccccc1Nc1c(Cl)cccc1Cl` [Diclofenac], in series [1], the 50% effective dose (ED50) is 10 mg/kg.

For the molecule `C[C@H](C(=O)O)c1ccc2oc(-c3ccc(F)cc3)nc2c1` [Example 2], the “water-solubility (in words)” value in series [3] (compared with Example 1) was “as in Example 1”.

Take `C[C@H](C(=O)O)c1ccc2oc(-c3ccc(F)cc3)nc2c1` [Flunoxaprofen, (+)2-(4-fluorophenyl)-alpha-methyl-5-benzoxazole acetic acid]: in series [1], the “TI (therapeutic index) LD50 /ED50” value was determined as 121.18 and it took a dose of 5.97 mg/kg to reach the 50% effect level (ED50). For the same molecule, the water-solubility result in series [4] is “very limited”. Moreover, in series [2], the LD50 came out at 724 mg/kg. Besides, the “activity of the dextrorotatory form” value in series [5] (Italian patent No. 1,080,779) is given as “particularly active”. The “anti-inflammatory, analgesic and antipyretic activity” value in series [5] (J. Medic. Chem. 1975, vol 18, No. 1, pp 53-58) is “considerable anti-inflammatory, analgesic and antipyretic activity”.
